Measurements as given in patent publication US20060229299A1, “5ht2c Receptor antagonists in the treatment of schizophrenia” (priority 2003, published 2006).
Like-named read-outs stand apart in the source and are kept apart here.

Tests used:
5-HT1A receptor [1] = target: T1, 5-HT1A receptor (Rattus norvegicus, UniProt P19327); details: cited from earlier work
T1 sequence (P19327 1-422): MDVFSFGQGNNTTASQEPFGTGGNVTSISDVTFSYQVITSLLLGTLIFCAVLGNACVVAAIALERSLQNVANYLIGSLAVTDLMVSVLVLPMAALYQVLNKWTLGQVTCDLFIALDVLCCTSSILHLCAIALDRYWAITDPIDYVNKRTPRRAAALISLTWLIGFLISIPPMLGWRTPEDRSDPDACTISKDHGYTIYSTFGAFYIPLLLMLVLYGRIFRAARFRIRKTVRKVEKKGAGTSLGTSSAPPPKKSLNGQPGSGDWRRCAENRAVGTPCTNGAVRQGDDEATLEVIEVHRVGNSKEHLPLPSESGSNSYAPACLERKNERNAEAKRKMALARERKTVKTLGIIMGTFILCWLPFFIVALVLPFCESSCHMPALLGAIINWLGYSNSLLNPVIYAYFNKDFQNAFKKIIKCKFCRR

5-HT6 receptor [2] = target: 5-HT6 receptor (Homo sapiens, UniProt P50406); details: cited from earlier work
D1 dopamine receptor [3] = target: D1 dopamine receptor (Homo sapiens, UniProt P21728); details: cited from earlier work
[4] = target: mACh, muscarinic acetylcholine receptor; details: human; cited from earlier work
α1-adrenoceptor [5] = details: human; cited from earlier work
α2-adrenoceptor [6] = details: human; cited from earlier work
sigma, σ receptor [7] = details: guinea-pig; cited from earlier work
[8] = design: key: 1-high; 2-medium; 3-low probability; details: Table 4A; grading of probability from literature reports; cited from earlier work
[9] = design: key: 1-high; 2-medium; 3-low probability; details: Table 4A; grading of probability from literature reports; cited from earlier work; remark: listed apart in the source
[10] = design: key: 1-high; 2-medium; 3-low probability; details: Table 4A; grading of probability from literature reports; cited from earlier work; remark: listed apart in the source
[11] = Table 4A; grading of probability from literature reports; cited from earlier work
[12] = test system: 5-HT2C receptor relative to 5-HT2A and D2 receptors; test: Relative 5-HT2C affinity (formula I, sum of 5-HT2C/5-HT2A and 5-HT2C/D2 affinity ratios)
5-HT2C receptor [13] = target: 5-HT2C receptor (UniProt P28335); details: ref 11 (human and for ritanserin data also rat); cited from earlier work
D1 dopamine receptor [14] = details: ref 11 (human and for ritanserin data also rat); cited from earlier work
[15] = target: T2, D2-L (long form of D2 receptor) (Homo sapiens, UniProt P14416); details: ref 11 (human and for ritanserin data also rat); cited from earlier work
D3 dopamine receptor [16] = target: T3, D3 dopamine receptor (Homo sapiens, UniProt P35462); details: ref 11 (human and for ritanserin data also rat); cited from earlier work
[17] = target: mACh, muscarinic acetylcholine receptor; details: ref 11 (human and for ritanserin data also rat); cited from earlier work
α1-adrenoceptor [18] = details: ref 11 (human and for ritanserin data also rat); cited from earlier work
α2-adrenoceptor [19] = details: ref 11 (human and for ritanserin data also rat); cited from earlier work
H1 histamine receptor [20] = target: T4, H1 histamine receptor (Homo sapiens, UniProt P35367); details: ref 11 (human and for ritanserin data also rat); cited from earlier work
sigma, σ receptor [21] = details: ref 11 (human and for ritanserin data also rat); cited from earlier work
5-HT2C receptor [22] = target: T5, 5-HT2C receptor (Homo sapiens, UniProt P28335); details: Table 3; expressed as pKi or pKd values; known affinities; cited from earlier work
T5 sequence (P28335 33-458): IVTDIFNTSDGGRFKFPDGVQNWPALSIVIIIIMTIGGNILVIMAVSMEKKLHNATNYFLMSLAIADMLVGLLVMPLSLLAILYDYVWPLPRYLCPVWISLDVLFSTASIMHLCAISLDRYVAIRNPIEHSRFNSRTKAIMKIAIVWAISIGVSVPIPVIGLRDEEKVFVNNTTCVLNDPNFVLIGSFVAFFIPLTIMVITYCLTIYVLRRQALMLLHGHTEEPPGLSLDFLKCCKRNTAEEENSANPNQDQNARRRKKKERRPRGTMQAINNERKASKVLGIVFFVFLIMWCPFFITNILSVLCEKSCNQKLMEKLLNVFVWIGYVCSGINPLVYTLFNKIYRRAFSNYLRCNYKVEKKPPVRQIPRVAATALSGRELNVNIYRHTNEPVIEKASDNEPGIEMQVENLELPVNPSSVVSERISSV

D2 receptor = D2 receptor (Homo sapiens, UniProt P14416); details: Table 3; expressed as pKi or pKd values; known affinities; cited from earlier work
5-HT7 receptor [23] = target: 5-HT7 receptor (UniProt P34969); details: ref 11 (human and for ritanserin data also rat); cited from earlier work
5-HT2A/D2 = 5-HT2A/D2 receptor affinity ratio; assay type: binding, human; details: Table 2; affinity ratio from data of Table 1
5-HT2C/5-HT2A = 5-HT2C/5-HT2A receptor affinity ratio; assay type: binding, human; details: Table 2; affinity ratio from data of Table 1
5-HT2C/D2 = 5-HT2C/D2 receptor affinity ratio; assay type: binding, human; details: Table 2; affinity ratio from data of Table 1
H1/D2 = H1/D2 receptor affinity ratio; assay type: binding, human; details: Table 2; affinity ratio from data of Table 1
5-HT1A receptor [24] = target: 5-HT1A receptor (Homo sapiens, UniProt P08908); details: cited from earlier work
5-HT3 receptor = 5-HT3 receptor (Homo sapiens, UniProt P46098); details: cited from earlier work
5-HT6 receptor [25] = target: 5-HT6 receptor (Rattus norvegicus, UniProt P31388); details: cited from earlier work
5-HT7 receptor [26] = target: 5-HT7 receptor (Rattus norvegicus, UniProt P32305); details: cited from earlier work
[27] = target: D2-S (short form of D2 receptor) (Homo sapiens, UniProt P14416); details: cited from earlier work
[28] = target: T2, D2-L (long form of D2 receptor); details: cited from earlier work
D3 dopamine receptor [29] = target: T3, D3 dopamine receptor; details: cited from earlier work
H1 histamine receptor [30] = target: T4, H1 histamine receptor; details: cited from earlier work
sigma, σ receptor [31] = details: human; cited from earlier work
5-HT2C receptor [32] = target: T5, 5-HT2C receptor; details: cited from earlier work
[33] = target: mACh, muscarinic acetylcholine receptor; details: rat; cited from earlier work
sigma, σ receptor [34] = details: rat; cited from earlier work
α1-adrenoceptor [35] = details: rat; cited from earlier work
α2-adrenoceptor [36] = details: rat; cited from earlier work
[37] = Table 2, sum of affinity ratios from data of Table 1

D1 dopamine receptor (Homo sapiens, UniProt P21728), sequence (P21728 whole entry): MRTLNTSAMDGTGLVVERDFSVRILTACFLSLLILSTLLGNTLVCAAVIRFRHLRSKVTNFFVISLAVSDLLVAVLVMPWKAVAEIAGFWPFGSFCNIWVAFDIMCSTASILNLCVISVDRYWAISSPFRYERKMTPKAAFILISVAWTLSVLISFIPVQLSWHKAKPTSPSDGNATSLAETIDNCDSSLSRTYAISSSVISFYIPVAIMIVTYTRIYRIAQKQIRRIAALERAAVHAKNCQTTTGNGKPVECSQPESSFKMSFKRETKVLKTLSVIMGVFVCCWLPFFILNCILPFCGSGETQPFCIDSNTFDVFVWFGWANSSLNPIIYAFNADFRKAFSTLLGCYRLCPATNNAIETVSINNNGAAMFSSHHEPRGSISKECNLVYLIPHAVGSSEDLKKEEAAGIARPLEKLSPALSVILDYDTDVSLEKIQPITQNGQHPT
5-HT7 receptor (Rattus norvegicus, UniProt P32305), sequence (P32305 whole entry): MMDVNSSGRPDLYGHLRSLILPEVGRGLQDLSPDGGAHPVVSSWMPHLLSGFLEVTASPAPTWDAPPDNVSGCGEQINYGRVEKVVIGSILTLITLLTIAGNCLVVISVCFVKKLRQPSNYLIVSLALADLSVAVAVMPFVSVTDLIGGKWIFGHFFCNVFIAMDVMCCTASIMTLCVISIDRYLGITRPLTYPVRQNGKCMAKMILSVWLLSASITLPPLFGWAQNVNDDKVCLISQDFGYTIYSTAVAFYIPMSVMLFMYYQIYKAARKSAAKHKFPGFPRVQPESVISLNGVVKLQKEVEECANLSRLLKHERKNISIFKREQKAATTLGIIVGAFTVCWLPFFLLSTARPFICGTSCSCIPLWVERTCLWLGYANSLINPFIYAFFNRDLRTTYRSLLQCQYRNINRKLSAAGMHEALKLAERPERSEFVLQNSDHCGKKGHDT
5-HT6 receptor (Rattus norvegicus, UniProt P31388), sequence (P31388 whole entry): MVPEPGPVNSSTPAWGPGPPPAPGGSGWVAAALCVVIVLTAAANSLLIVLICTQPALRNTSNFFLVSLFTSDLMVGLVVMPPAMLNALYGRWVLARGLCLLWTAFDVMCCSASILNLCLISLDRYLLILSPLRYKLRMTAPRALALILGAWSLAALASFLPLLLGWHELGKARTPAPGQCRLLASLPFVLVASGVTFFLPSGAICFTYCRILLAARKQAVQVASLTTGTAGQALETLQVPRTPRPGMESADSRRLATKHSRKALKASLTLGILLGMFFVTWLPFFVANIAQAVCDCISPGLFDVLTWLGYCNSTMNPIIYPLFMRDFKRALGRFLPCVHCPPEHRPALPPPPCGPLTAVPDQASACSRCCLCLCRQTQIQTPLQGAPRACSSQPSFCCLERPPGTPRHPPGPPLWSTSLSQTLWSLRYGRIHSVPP
T3 sequence (P35462 whole entry): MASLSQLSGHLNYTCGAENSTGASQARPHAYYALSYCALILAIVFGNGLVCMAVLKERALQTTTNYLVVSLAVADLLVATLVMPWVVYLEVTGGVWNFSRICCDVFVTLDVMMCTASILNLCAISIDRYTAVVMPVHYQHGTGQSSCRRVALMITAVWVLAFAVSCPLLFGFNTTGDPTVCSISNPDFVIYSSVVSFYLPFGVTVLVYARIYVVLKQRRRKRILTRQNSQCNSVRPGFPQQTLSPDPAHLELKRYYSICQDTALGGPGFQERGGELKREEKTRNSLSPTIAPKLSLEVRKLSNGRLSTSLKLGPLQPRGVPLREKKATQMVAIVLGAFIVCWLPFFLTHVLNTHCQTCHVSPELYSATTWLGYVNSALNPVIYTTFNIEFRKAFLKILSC
5-HT3 receptor, sequence (P46098 24-478): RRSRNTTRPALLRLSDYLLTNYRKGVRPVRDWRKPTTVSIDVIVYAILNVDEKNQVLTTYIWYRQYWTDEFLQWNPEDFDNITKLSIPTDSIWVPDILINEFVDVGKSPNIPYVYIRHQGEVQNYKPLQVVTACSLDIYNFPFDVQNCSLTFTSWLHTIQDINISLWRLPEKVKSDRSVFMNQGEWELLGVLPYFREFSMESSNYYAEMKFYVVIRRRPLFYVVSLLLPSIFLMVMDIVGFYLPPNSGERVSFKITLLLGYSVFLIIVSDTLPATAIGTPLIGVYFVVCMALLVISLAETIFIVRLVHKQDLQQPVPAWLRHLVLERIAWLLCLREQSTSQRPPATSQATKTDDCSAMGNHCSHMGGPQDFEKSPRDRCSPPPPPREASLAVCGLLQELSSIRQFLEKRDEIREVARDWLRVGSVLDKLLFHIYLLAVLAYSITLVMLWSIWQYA
T4 sequence (P35367 whole entry): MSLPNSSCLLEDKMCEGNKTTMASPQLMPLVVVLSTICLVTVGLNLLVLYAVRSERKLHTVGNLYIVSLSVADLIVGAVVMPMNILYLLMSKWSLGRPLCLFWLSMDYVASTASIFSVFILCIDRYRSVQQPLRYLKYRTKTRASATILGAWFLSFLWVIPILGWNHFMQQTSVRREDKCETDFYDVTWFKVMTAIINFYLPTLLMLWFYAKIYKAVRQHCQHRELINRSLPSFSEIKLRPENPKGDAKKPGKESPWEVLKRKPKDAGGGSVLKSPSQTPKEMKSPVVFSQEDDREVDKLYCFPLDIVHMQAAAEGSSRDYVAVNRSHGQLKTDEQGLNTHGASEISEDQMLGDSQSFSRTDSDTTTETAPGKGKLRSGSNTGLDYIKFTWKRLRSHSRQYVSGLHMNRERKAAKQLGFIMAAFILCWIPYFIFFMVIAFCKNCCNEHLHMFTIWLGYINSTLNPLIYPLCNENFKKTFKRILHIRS
D2-S (short form of D2 receptor), sequence (P14416 1-414 isoform P14416-2): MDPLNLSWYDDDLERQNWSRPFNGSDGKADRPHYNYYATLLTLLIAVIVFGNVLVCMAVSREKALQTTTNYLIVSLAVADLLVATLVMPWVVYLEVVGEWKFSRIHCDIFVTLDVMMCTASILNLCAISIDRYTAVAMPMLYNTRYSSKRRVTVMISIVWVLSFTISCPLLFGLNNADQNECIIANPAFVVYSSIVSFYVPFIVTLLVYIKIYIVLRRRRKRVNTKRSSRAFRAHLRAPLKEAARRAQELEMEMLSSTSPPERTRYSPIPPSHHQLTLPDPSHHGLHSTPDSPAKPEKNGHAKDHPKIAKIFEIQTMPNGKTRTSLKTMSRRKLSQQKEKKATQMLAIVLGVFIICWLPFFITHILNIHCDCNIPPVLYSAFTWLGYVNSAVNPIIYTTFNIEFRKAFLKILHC
5-HT1A receptor (Homo sapiens, UniProt P08908), sequence (P08908 whole entry): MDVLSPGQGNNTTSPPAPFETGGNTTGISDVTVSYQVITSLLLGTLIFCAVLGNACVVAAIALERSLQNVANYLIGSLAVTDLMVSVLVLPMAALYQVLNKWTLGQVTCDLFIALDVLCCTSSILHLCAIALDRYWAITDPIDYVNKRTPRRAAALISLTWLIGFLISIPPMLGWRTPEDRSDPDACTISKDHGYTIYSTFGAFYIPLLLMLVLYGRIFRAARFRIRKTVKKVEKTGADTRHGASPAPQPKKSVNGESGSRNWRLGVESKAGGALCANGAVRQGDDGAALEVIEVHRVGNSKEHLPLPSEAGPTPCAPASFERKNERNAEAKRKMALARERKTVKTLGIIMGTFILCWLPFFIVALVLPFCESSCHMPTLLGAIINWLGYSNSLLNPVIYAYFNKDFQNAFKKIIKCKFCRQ
5-HT6 receptor (Homo sapiens, UniProt P50406), sequence (P50406 whole entry): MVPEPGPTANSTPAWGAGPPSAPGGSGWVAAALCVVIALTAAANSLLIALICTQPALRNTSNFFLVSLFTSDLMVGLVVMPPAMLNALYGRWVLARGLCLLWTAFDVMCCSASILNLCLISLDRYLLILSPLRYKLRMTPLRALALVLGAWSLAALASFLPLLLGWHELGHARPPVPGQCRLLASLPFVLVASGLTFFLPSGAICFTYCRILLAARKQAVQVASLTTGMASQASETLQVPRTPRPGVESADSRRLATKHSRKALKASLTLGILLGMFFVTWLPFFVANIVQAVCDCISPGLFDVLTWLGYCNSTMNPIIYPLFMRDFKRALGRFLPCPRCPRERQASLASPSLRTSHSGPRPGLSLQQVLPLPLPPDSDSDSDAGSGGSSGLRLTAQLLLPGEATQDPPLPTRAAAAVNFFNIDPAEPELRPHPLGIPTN
D2 receptor, sequence (P14416 whole entry): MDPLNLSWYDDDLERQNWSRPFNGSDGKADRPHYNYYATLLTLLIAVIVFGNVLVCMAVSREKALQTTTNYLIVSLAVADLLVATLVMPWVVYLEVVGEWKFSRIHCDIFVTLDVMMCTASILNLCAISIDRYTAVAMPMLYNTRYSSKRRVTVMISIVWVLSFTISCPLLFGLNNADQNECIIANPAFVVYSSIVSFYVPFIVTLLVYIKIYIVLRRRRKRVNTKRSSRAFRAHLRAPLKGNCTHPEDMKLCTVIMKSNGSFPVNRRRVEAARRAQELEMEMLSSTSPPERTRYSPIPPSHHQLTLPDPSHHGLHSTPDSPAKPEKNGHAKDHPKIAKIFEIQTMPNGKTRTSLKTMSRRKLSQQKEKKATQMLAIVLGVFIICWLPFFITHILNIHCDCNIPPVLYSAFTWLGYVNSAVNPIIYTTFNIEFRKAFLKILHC
T2 sequence (P14416 whole entry): as above

O=C1NCCN1CCN1CCC(c2cn(-c3ccc(F)cc3)c3ccc(Cl)cc23)CC1 [Sertindole]
5-HT1A affinity value (−logKi) (5-HT1A receptor [1]): 6.6^6 | 5-HT6 affinity value (−logKi) (5-HT6 receptor [2]): 9.13^19 | D1 affinity value (−logKi) (D1 dopamine receptor [3]): 6.89^19 | mACh affinity value (−logKi) [4]: <5.6^19 | α1 affinity value (−logKi) (α1-adrenoceptor [5]): 8.7^19 | α2 affinity value (−logKi) (α2-adrenoceptor [6]): 6.5^19 | sigma affinity value (−logKi) (sigma, σ receptor [7]): 6.9^6 | Extra-pyramidal side effects [8]: 3 | Improvement negative symptoms [9]: 2 | Increases prolactin levels [10]: 3 | Weight Gain [11]: 2-3 | (2C/2A) + (2C/D2) ([12]; Table 4B): 1.91

Cc1nc2sccn2c(=O)c1CCN1CCC(=C(c2ccc(F)cc2)c2ccc(F)cc2)CC1 [Ritanserin]
5-HT2C affinity value (−logKi) (5-HT2C receptor [13]): 9.0^11 | D1 affinity value (−logKi) (D1 dopamine receptor [14]): 5.9^11 | D2-L affinity value (−logKi) [15]: 7.4^11 | D3 affinity value (−logKi) (D3 dopamine receptor [16]): 7.1^11 | mACh affinity value (−logKi) [17]: 5.4^11 | α1 affinity value (−logKi) (α1-adrenoceptor [18]): 7.5^11 | α2 affinity value (−logKi) (α2-adrenoceptor [19]): 7.3^11 | H1 affinity value (−logKi) (H1 histamine receptor [20]): 8.2^11 | sigma affinity value (−logKi) (sigma, σ receptor [21]): 6.1^11 | 5-HT2C Affinity (5-HT2C receptor [22]): 9 | D2 Affinity (D2 receptor): 7.4 | 5-HT7 affinity value (−logKi) (5-HT7 receptor [23]): 7.8^11 | (2C/2A) + (2C/D2) [12, 37]: 2.15

CCNC(=O)N1CCN(CCCC(c2ccc(F)cc2)c2ccc(F)cc2)CC1 [Amperozide]
5-HT2A/D2 (5-HT2A/D2): 1.23 | 5-HT2C/5-HT2A (2C/2A) (5-HT2C/5-HT2A): 0.76 | 5-HT2C/D2 (2C/D2) (5-HT2C/D2): 0.92 | H1/D2 (H1/D2): 1.08 | 5-HT1A affinity value (−logKi) (5-HT1A receptor [24]): 5.9^19 | 5-HT3 affinity value (−logKi) (5-HT3 receptor): <5^19 | 5-HT6 affinity value (−logKi) (5-HT6 receptor [25]): 7.2^2 | 5-HT7 affinity value (−logKi) (5-HT7 receptor [26]): 6.3^2 | D1 affinity value (−logKi) (D1 dopamine receptor [3]): 5.1^19 | D2-S affinity value (−logKi) [27]: 6.5^3 | D2-L affinity value (−logKi) [28]: 6.4^3 | D3 affinity value (−logKi) (D3 dopamine receptor [29]): 6.6^3 | mACh affinity value (−logKi) [4]: 6.3^19 | α1 affinity value (−logKi) (α1-adrenoceptor [5]): 6.2^19 | α2 affinity value (−logKi) (α2-adrenoceptor [6]): 5.5^19 | H1 affinity value (−logKi) (H1 histamine receptor [30]): 6.9^19 | sigma affinity value (−logKi) (sigma, σ receptor [31]): 6.3^19 | (2C/2A) + (2C/D2) [12, 37]: 1.67

COc1cc(C(C)=O)ccc1OCCCN1CCC(c2noc3cc(F)ccc23)CC1 [Iloperidone]
5-HT1A affinity value (−logKi) (5-HT1A receptor [1]): 6.8^18 | 5-HT2C affinity value (−logKi) (5-HT2C receptor [32]): 7.4^10 | 5-HT6 affinity value (−logKi) (5-HT6 receptor [25]): 7.4^10 | 5-HT7 affinity value (−logKi) (5-HT7 receptor [26]): 7.7^10 | D1 affinity value (−logKi) (D1 dopamine receptor [3]): 6.7^10 | D3 affinity value (−logKi) (D3 dopamine receptor [29]): 8.1^10 | mACh affinity value (−logKi) [33]: <5^17 | sigma affinity value (−logKi) (sigma, σ receptor [34]): 7.5^17 | α1 affinity value (−logKi) (α1-adrenoceptor [35]): 9.6^17 | α2 affinity value (−logKi) (α2-adrenoceptor [36]): 7.5^17 | (2C/2A) + (2C/D2) [12, 37]: 1.79
